In paper PMC8859984 (Journal of medicinal chemistry, 2020):
“Also recorded” adds a separate entry of the source. Each block holds one molecule with its values, some of them ahead of it.

Columns and labels:
[1] = tested on: KARPAS422 cells
[2] = tested on: KARPAS422 cell tumor; details: 300 mg/kg twice daily via oral gavage; cited from earlier work
[3] = tested on: tumor growth; details: 300 mg/kg twice a week subcutaneous injections for 5 weeks; cited from earlier work
[4] = target: EED (1–441)-His protein (Homo sapiens, UniProt O75530); assay: EED-H3K27me3 peptide competition binding assay by AlphaScreen; details: vs compound 21
[5] = tested on: KARPAS422 xenograft model; assay: Antitumor activity in the KARPAS422 xenograft model; format: in vivo, SCID mice; details: for tumor regression in KARPAS422 xenograft model: 50 and 100 mg/kg via oral gavage, daily for 28 days
[6] = tested on: H3K27me3; assay: Pharmacodynamic analysis of H3K27me3 in KARPAS422 xenograft tumor tissue; format: in vivo, SCID mice; details: single 100 mg/kg oral administration, 24 h, Western blotting
[7] = Animal body weights during the KARPAS422 xenograft efficacy experiment; format: in vivo, SCID mice; details: 50 and 100 mg/kg oral gavage daily for 28 days

Sequence of EED (1–441)-His protein (O75530 whole entry): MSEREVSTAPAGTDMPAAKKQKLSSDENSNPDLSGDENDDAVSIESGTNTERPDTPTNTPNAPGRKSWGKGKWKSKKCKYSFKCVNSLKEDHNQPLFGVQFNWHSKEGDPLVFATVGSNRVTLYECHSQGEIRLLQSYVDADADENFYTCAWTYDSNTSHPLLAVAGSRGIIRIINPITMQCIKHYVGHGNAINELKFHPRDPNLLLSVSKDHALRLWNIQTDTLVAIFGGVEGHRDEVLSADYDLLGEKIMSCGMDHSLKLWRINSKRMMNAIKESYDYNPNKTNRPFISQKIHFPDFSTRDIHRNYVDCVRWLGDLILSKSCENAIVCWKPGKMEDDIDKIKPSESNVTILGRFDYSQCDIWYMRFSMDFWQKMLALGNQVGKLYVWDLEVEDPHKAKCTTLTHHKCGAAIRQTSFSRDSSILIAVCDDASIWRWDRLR

Structure (SMILES): CCOC(=O)c1ncn2c(NCc3ccco3)ncc(-c3ccccc3)c12 [Compound 8, Ethyl 5-((Furan-2-ylmethyl)amino)-8-phenylimidazo[1,5-c]-pyrimidine-1-carboxylate]
times more potent than 7 in inhibition of cell growth in KARPAS422 ([1]; vs compound 7): 2 times

Structure (SMILES): CS(=O)(=O)c1ccc(-c2cnc(NCc3ccco3)n3cnnc23)cc1 [EED226]
KARPAS422 cell tumor regression [2]: complete KARPAS422 cell tumor regression

Structure (SMILES): CN(C)[C@H]1CN(C2CCc3cccc(F)c32)C[C@@H]1c1ccc(N2CCN(S(C)(=O)=O)CC2)cc1 (stereo partly shown) [Compound A-395]
inhibition of tumor growth [3]: 84%

Structure (SMILES): CCOC(=O)c1ncn2c(NCc3ccccc3)ncc(-c3ccccc3)c12 [Compound 10, Ethyl 5-(Benzylamino)-8-phenylimidazo[1,5-c]pyrimidine-1-carboxylate]
times less potent than 8 in cellular assay ([1]; vs compound 8, KARPAS422): 2–3 times

Structure (SMILES): CCOC(=O)c1ncn2c(NCc3c(F)cccc3OC)ncc(-c3ccccc3)c12 [Compound 12, Ethyl 5-((2-Fluoro-6-methoxybenzyl)amino)-8-phenylimidazo-[1,5-c]pyrimidine-1-carboxylate]
times more potent than 11 in cell growth inhibition in KARPAS422 ([1]; vs compound 11): 6 times

Structure (SMILES): CCOC(=O)c1ncn2c(NCc3cccc4c3CCO4)ncc(-c3ccccc3)c12 [Compound 17, Ethyl 5-(((2,3-Dihydrobenzofuran-4-yl)methyl)amino)-8-phenylimidazo[1,5-c]pyrimidine-1-carboxylate]
times more potent than 16 in inhibition of cell growth in KARPAS422 ([1]; vs compound 16): 30 times

Structure (SMILES): CCOC(=O)c1ncn2c(NCc3cc(OC)ccc3F)ncc(-c3ccccc3)c12 [Compound 13, Ethyl 5-((2-Fluoro-5-methoxybenzyl)amino)-8-phenylimidazo-[1,5-c]pyrimidine-1-carboxylate]
times less potent than 12 in cell growth inhibition in KARPAS422 ([1]; vs compound 12): 8 times

times less potent than 21 in binding to EED [4]: 17 times
Structure (SMILES): CS(=O)(=O)c1ncn2c(NCc3c(F)ccc4c3CCO4)ncc(C3CCOCC3)c12 [Compound 35, N-((5-Fluoro-2,3-dihydrobenzofuran-4-yl)methyl)-1-(methylsulfonyl)-8-(tetrahydro-2H-pyran-4-yl)imidazo[1,5-c]pyrimidin-5-amine]
times less potent than 21 in inhibition of KARPAS422 cell growth ([1]; vs compound 21): 24 times

Structure (SMILES): Cc1ccc(-c2cnc(NCc3c(F)ccc4c3CCO4)n3cnc(S(C)(=O)=O)c23)c(C)n1 [Compound 32, 8-(2,6-Dimethylpyridin-3-yl)-N-((5-fluoro-2,3-dihydrobenzofuran-4-yl)methyl)-1-(methylsulfonyl)imidazo[1,5-c]pyrimidin-5-amine]
tumor regression in KARPAS422 xenograft model ([5]; listed as EEDi-1056): complete tumor regression
level of H3K27me3 in KARPAS422 tumor tissue [6]: effectively reduces the level of H3K27me3

Structure (SMILES): CS(=O)(=O)c1ncn2c(NCc3c(F)ccc4c3CCO4)ncc(-c3ccc(F)cc3)c12 [Compound 24, N-((5-Fluoro-2,3-dihydrobenzofuran-4-yl)methyl)-8-(4-fluorophenyl)-1(methylsulfonyl)imidazo[1,5-c]pyrimidin-5-amine]
times less potent than 21 in inhibition of KARPAS422 cell growth ([1]; vs compound 21): 2–3 times

times more potent than 21 in binding to EED [4]: 5 times
Structure (SMILES): CS(=O)(=O)c1ncn2c(NCc3c(F)ccc4c3CCO4)ncc(-c3ccc(C(F)F)nc3)c12 [Compound 29, 8-(6-(Difluoromethyl)pyridin-3-yl)-N-((5-fluoro-2,3-dihydrobenzofuran-4-yl)methyl)-1-(methylsulfonyl)imidazo[1,5-c]pyrimidin-5-amine]

Structure (SMILES): CS(=O)(=O)c1ncn2c(NCc3c(F)ccc4c3CCO4)ncc(-c3ccc(C4CC4)nc3)c12 [Compound 28, 8-(6-Cyclopropylpyridin-3-yl)-N-((5-fluoro-2,3-dihydrobenzofuran-4-yl)methyl)-1-(methylsulfonyl)imidazo[1,5-c]pyrimidin-5-amine]
tumor regression in KARPAS422 xenograft model ([5]; listed as EEDi-5285): complete and durable tumor regression; also recorded: complete and long-lasting tumor regression
regrowth of tumors after end of treatment ([5]; after treatment had been stopped for 72 days, 50 and 100 mg/kg oral daily for 28 days): no regrowth of tumors was observed
times more potent than 21 in inhibition of KARPAS422 cell growth ([1]; vs compound 21): 3–4 times
times more potent than 21 in binding to EED [4]: 3–4 times
level of H3K27me3 in KARPAS422 tumor tissue [6]: effectively reduces the level of H3K27me3
animal weight loss during the entire experiment [7]: minimal weight loss
